Counter-ions that a name gives are not always drawn.
Assays:
Human VAP-1 enzyme = biological target: T1, Human VAP-1 enzyme (Homo sapiens, UniProt Q16853); assay: Human VAP-1 enzyme inhibition test; type: biochemical; conditions: 1 h; compound 30 nM; 14C-benzylamine 100 μM; read-out: inhibition ratio (human VAP-1 enzyme)
T1 construct: purchased R&D Systems, Inc
T1 sequence (Q16853 1-763): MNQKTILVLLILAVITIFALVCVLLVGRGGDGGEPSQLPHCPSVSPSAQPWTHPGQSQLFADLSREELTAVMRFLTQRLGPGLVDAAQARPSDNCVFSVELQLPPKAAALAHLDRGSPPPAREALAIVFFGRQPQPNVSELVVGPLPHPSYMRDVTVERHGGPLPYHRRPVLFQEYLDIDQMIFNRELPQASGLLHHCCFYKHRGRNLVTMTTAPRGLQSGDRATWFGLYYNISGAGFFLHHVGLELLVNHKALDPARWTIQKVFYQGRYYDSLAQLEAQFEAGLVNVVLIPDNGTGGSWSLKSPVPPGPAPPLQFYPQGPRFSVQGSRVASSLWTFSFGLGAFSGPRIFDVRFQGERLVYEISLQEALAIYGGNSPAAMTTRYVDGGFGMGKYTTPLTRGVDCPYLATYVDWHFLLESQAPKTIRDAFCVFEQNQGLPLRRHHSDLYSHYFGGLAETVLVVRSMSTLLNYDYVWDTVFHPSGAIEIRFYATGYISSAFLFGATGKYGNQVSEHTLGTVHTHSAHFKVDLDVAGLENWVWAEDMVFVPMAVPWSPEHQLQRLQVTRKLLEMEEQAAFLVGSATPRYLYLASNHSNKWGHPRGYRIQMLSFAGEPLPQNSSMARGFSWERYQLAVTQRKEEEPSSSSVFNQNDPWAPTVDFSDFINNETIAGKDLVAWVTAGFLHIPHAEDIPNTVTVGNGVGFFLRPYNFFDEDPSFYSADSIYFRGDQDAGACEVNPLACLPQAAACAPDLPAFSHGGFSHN
How it was run: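 Recombinant human VAP-1 pre-incubated 20 min at room temperature with compound in DMSO, then reacted with 14C-benzylamine (100 μM final) 1 h at 37 °C. Citric acid stop; oxidized product extracted into toluene/ethyl acetate and counted by liquid scintillation. Inhibition ratio relative to DMSO-only activity.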

Rat Plasma VAP-1 = biological target: T2, Rat Plasma VAP-1 (Rattus norvegicus, UniProt O08590); assay: (Ex vivo) rat plasma VAP-1 inhibition test after oral administration of the compound; type: in vivo; conditions: 3 hours after oral administration, SD male rats, read-out: inhibition ratio (plasma VAP-1, ex vivo)
T2 construct: from tissue; host or cells: plasma of SD male rats (7-12 weeks old) after oral dosing
T2 sequence (O08590 28-763 limits assumed): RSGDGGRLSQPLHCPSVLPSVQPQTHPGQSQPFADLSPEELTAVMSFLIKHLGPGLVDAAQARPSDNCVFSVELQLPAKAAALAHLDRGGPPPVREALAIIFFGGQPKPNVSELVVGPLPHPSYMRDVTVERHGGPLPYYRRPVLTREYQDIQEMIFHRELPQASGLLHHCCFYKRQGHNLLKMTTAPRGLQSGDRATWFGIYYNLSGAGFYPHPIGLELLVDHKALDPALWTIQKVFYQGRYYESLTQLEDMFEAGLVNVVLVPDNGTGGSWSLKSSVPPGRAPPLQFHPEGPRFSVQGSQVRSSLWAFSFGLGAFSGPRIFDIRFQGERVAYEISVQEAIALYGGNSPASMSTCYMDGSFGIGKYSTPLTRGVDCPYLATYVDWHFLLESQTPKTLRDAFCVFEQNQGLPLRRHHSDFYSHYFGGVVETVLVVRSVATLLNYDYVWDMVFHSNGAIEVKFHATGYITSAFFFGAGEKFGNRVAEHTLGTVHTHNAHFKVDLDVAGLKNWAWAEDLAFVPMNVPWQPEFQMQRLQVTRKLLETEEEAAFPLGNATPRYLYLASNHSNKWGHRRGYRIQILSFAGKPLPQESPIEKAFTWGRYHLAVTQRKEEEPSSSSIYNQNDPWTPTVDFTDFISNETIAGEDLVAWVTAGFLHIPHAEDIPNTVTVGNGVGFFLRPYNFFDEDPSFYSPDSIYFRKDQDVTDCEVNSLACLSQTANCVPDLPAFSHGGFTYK
Procedure: (Ex Vivo) Rat Plasma VAP-1 Inhibition Test after Oral Administration of the Compound
The compound was orally administered (0.3-10 mg/kg) to 7-12 week old SD male rats in the non-fasting state. Under anesthesia, the blood was collected in heparin tubes from the jugular vein before the administration and 3, 8 and 24 hours after the administration. The blood was centrifuged at 14000 rpm for 10 minutes to get plasma. The VAP-1 enzyme activity in the plasma was measured by radiochemical enzyme assay.
The radiochemical enzyme assay was conducted by modifying the method of P. H. Yu et al. (Diabetologia 40 1243 (1997)). ^14C-benzylamine (2.5 μM) was added to the obtained plasma, and was incubated at 37° C. for 3 hours. The reaction was terminated by the addition of 100 μL of 2 M citric acid solution to the reaction solution. The oxidative product was extracted using a toluene/ethyl acetate mixture and the radioactivity was measured with a liquid scintillation counter. The inhibition ratio of the compound was calculated using the following equation. Inhibition ratio={1−[Plasma VAP-1 activity after administration of the compound]/[Plasma VAP-1 activity before administration]}×100

| SMILES | inhibition at 0.03 µM (Human VAP-1 enzyme) | inhibition in vivo at 0.3 mg/kg (Rat Plasma VAP-1) |
| --- | --- | --- |
| N=C(N)NC(=O)OCc1cccc(-c2cnc(N3CC(=NO)C3)nc2)c1F [Example 70, 2-Fluoro-3-{2-[3-(hydroxyimino)azetidin-1-yl]pyrimidin-5-yl}benzyl carbamimidoylcarbamate] | ≥ 50% | ≥ 50% |
| COCC(CON=C1CN(c2ncc(-c3cccc(COC(=O)NC(=N)N)c3F)cn2)C1)OC(C)=O (stereo not shown) [Example 20, 1-[({1-[5-(3-{[(Carbamimidoylcarbamoyl)oxy]methyl}-2-fluorophenyl)pyrimidin-2-yl]azetidin-3-ylidene}amino)oxy]-3-methoxypropan-2-yl acetate] | ≥ 50% | ≥ 50% |
| N=C(N)NC(=O)OCc1cccc(-c2cnc(N3CCC(=NOCCOC4CCCCO4)CC3)nc2)c1F (stereo not shown) [Example 57, 2-Fluoro-3-{2-[4-({2-[(tetrahydropyran-2-yl)oxy]ethoxy}imino)piperidin-1-yl]pyrimidin-5-yl}benzyl carbamimidoylcarbamate] | ≥ 50% | ≥ 50% |
| CO/N=C1\CCN(c2ncc(-c3cccc(COC(=O)NC(=N)N)c3F)cn2)C1 [Example 69, (E/Z)-2-fluoro-3-{2-[3-(methoxyimino)pyrrolidin-1-yl]pyrimidin-5-yl}benzyl carbamimidoylcarbamate] | ≥ 50% | ≥ 50% |
| N=C(N)NC(=O)OCc1cccc(-c2cnc(N3CC(=NOCCC(O)CO)C3)nc2)c1F (stereo not shown) [Example 94, 3-(2-{3-[(3,4-Dihydroxybutoxy)imino]azetidin-1-yl}pyrimidin-5-yl)-2-fluorobenzyl carbamimidoylcarbamate] | ≥ 50% | ≥ 50% |
| CON=C1CN(c2ncc(-c3cccc(COC(=O)NC(=N)N)c3F)cc2C)C1 [Example 42, 2-Fluoro-3-{6-[3-(methoxyimino)azetidin-1-yl]-5-methylpyridin-3-yl}benzyl carbamimidoylcarbamate] | ≥ 50% | ≥ 50% |
| CON=C1CN(c2ccc(-c3cccc(COC(=O)NC(=N)N)c3F)cn2)C1 [Example 41, 2-Fluoro-3-{6-[3-(methoxyimino)azetidin-1-yl]pyridin-3-yl}benzyl carbamimidoylcarbamate] | ≥ 50% | ≥ 50% |
| N=C(N)NC(=O)OCc1cccc(-c2cnc(N3CCC(=NOCCCCO)CC3)nc2)c1F [Example 87, 2-Fluoro-3-(2-{4-[(4-hydroxybutoxy)imino]piperidin-1-yl}pyrimidin-5-yl)benzyl carbamimidoylcarbamate hydrochloride] | ≥ 50% | ≥ 50% |
| COCCON=C1CCN(c2ncc(-c3cccc(COC(=O)NC(=N)N)c3F)cn2)CC1 [Example 60, 2-Fluoro-3-(2-{4-[(2-methoxyethoxy)imino]piperidin-1-yl}pyrimidin-5-yl)benzyl carbamimidoylcarbamate] | ≥ 50% | ≥ 50% |

Next, values leading:

| inhibition at 0.03 µM (Human VAP-1 enzyme) | inhibition in vivo at 0.3 mg/kg (Rat Plasma VAP-1) | SMILES |
| --- | --- | --- |
| ≥ 50% | ≥ 50% | N=C(N)NC(=O)OCc1cccc(-c2cnc(N3CCC(=NOCCO)CC3)nc2)c1F [Example 85, 2-Fluoro-3-(2-{4-[(2-hydroxyethoxy)imino]piperidin-1-yl}pyrimidin-5-yl)benzyl carbamimidoylcarbamate] |
| ≥ 50% | ≥ 50% | CS(=O)(=O)CCON=C1CCN(c2ncc(-c3cccc(COC(=O)NC(=N)N)c3F)cn2)CC1 [Example 167, 2-Fluoro-3-[2-(4-{[2-(methylsulfonyl)ethoxy]imino}piperidin-1-yl)pyrimidin-5-yl]benzyl carbamimidoylcarbamate] |
| ≥ 50% | ≥ 50% | N#CCCCON=C1CCN(c2ncc(-c3cccc(COC(=O)NC(=N)N)c3F)cn2)CC1 [Example 166, 3-(2-{4-[(3-Cyanopropoxy)imino]piperidin-1-yl}pyrimidin-5-yl)-2-fluorobenzyl carbamimidoylcarbamate] |
| ≥ 50% | ≥ 50% | N=C(N)NC(=O)OCc1cccc(-c2cnc(N3CCC(=NOCc4ccncc4)CC3)nc2)c1F [Example 176, 2-Fluoro-3-(2-{4-[(pyridin-4-ylmethoxy)imino]piperidin-1-yl}pyrimidin-5-yl)benzyl carbamimidoylcarbamate] |
| ≥ 50% | ≥ 50% | CN(C)C(=O)CCON=C1CCN(c2ncc(-c3cccc(COC(=O)NC(=N)N)c3F)cn2)CC1 [Example 154, 3-[2-(4-{[3-(Dimethylamino)-3-oxopropoxy]imino}piperidin-1-yl)pyrimidin-5-yl]-2-fluorobenzyl carbamimidoylcarbamate] |
| ≥ 50% | ≥ 50% | CS(=O)(=O)CCCON=C1CCN(c2ncc(-c3cccc(COC(=O)NC(=N)N)c3F)cn2)CC1 [Example 168, 2-Fluoro-3-[2-(4-{[3-(methylsulfonyl)propoxy]imino}piperidin-1-yl)pyrimidin-5-yl]benzyl carbamimidoylcarbamate] |
| ≥ 50% | ≥ 50% | N=C(N)NC(=O)OCc1cccc(-c2cnc(N3CCC(=NOCCN4CCCC4=O)CC3)nc2)c1F [Example 178, 2-Fluoro-3-[2-(4-{[2-(2-oxopyrrolidin-1-yl)ethoxy]imino}piperidin-1-yl)pyrimidin-5-yl]benzyl carbamimidoylcarbamate] |
| ≥ 50% | ≥ 50% | COC(CO)CON=C1CN(c2ncc(-c3cccc(COC(=O)NC(=N)N)c3F)cn2)C1 (stereo not shown) [Example 101, 2-Fluoro-3-(2-{3-[(3-hydroxy-2-methoxypropoxy)imino]azetidin-1-yl}pyrimidin-5-yl)benzyl carbamimidoylcarbamate] |
| ≥ 50% | ≥ 50% | N=C(N)NC(=O)OCc1cccc(-c2cnc(N3CCC(=NOCC(CO)CO)CC3)nc2)c1F [Example 97, 2-Fluoro-3-[2-(4-{[3-hydroxy-2-(hydroxymethyl)propoxy]imino}piperidin-1-yl)pyrimidin-5-yl]benzyl carbamimidoylcarbamate] |
| ≥ 50% | ≥ 50% | N=C(N)NC(=O)OCc1cccc(-c2cnc(N3CCC(=NOCCC(N)=O)CC3)nc2)c1F [Example 150, 3-(2-{4-[(3-Amino-3-oxopropoxy)imino]piperidin-1-yl}pyrimidin-5-yl)-2-fluorobenzyl carbamimidoylcarbamate] |
| ≥ 50% | ≥ 50% | N=C(N)NC(=O)OCc1cccc(-c2cnc(N3CCC(=NOCCn4cccn4)CC3)nc2)c1F [Example 175, 3-[2-(4-{[2-(1H-pyrazol-1-yl)ethoxy]imino}piperidin-1-yl)pyrimidin-5-yl]-2-fluorobenzyl carbamimidoylcarbamate] |
